For data set [1], the system named is NPCs in forebrain organoids. As to the kind of experiment: Acute BPA treatment of forebrain organoids (24 hr), EdU pulse-labeling and PH3 immunostaining. The following applies: acute treatment with higher BPA concentrations for 24 hr. The data set is classed as cell-based, human. As for the experimental part:
(§1) The apparent homogeneity of forebrain organoids, small volume per condition, and multi-well format of SpinΩ comprise a platform that is amenable to chemical compound testing. As a proof of principle, we tested the effect of Bisphenol A (BPA), which is commonly found in household plastic products and is known to affect rodent neural development.
For the acute BPA treatment experiment, forebrain organoids were grown to day 28 and treated with corresponding concentrations of BPA for 24 hr. At day 29, the culture media was replaced with fresh media and washed 3 times to remove residual BPA. Organoids were then pulsed with 10 μM EdU for 2 hr. The media was then replaced and organoids were washed 3 times with fresh media. At day 30, organoids were fixed for immunohistochemistry and EdU detection using Click-iT® EdU Alexa Fluor® 488 Imaging Kit (ThermoFisher C10337) according to the manufacturer's manual, followed by immunostaining for SOX2 and PH3. Images were acquired with a Zeiss' LSM 700 Confocal system at 25× magnification. Quantification was performed by counting the number of EdU and PH3+ nuclei within SOX2+ ventricular structures that were defined by neural tube-like morphology. EdU and PH3 densities were normalized to the area of ventricular structures measured in ImageJ software. Quantification was conducted by investigators blind to culture conditions.

The subject of data set [2] is forebrain organoids. Briefly: Long-term BPA treatment of forebrain organoids (days 14 to 28), relative VZ thickness. Format: cell-based, human. Conditions: treatment from days 14 to 28; forebrain organoids in SpinΩ. On the procedure: as §1
Forebrain organoids were grown using the protocol described above. For the long-term BPA treatment experiment, forebrain organoids at day 14 from the same batch were distributed randomly into separate wells within SpinQ and treated with different concentrations of BPA (Sigma). BPA was dissolved in sequential dilutions in differentiation media with 0.05% methanol, which was also added in the control condition. Media containing BPA was replaced every other day until analysis on day 28. […] Quantification was conducted by investigators blind to culture conditions.
Organoids grown from the “intrinsic protocol” and forebrain protocol were immunostained for SOX2, TUJ1 and CTIP2 at days 14 and 28. […] The length for VZ and outer layer was measured in ImageJ™ software. […] Relative thicknesses for VZ, SVZ and CP were calculated by the ratio to total thickness from ventricular to pial surface.

Data set [3] deals with human developing cerebral cortex organoids. As to the kind of experiment: Toxin screening of BPA in the 12-well culture system, proliferation of neuronal precursor cells. Format: cell-based. Conditions: different concentrations of BPA. As for the experimental part: Culture conditions were systemically tested to optimize protocols. Additionally, screening was performed to test the effects of Bisphenol A (BPA) on neurogenesis in the organoid system.
Toxin screening was performed using the 12-well culture system. Images of the effect of different concentrations of BPA on human developing cerebral cortex organoids were taken (data not shown).

Data set [4] concerns forebrain organoids. As to the kind of experiment: Signaling-molecule treatment of embryoid bodies during the Matrigel stage, activated caspase-3 (CAS3) immunostaining. Format: cell-based, human. The following applies: for number of CAS3+ cells at day 14: combined treatment with the three factors CHIR99021, WNT3A and SB-431542 during the Matrigel stage. An excerpt:
To reduce tissue heterogeneity, we pre-patterned embryoid bodies to the fate of a specific brain region. We first treated human iPSCs with dual SMAD inhibitors (dorsomorphin and A-83) for 7 days and then embedded embryoid bodies in Matrigel for another 7 days, followed by Matrigel removal and spinning in SpinΩ (FIG. 12). Compared to the “intrinsic protocol,” we could reliably generate organoids from multiple iPSC lines with reduced heterogeneity in organoid shape and size (data not shown). However, there was significant cell death within organoids, as shown by activated caspase-3 (CAS3) immune-staining (data not shown). We then tested combinations of different signaling molecules for various durations. […] Later, we determined that the WNT3A contribution was minimal, likely because WNT3A and CHIR99021 activate the same downstream signaling pathway (data not shown). At day 14, well-defined polarized neuroepithelium-like structures resembled neural tubes, with a nearly pure population of NESTIN+SOX2+ NPCs and expression of adherent junction markers (b-CATENIN and PKC1) and proliferation marker phosphohistone H3 (PH3) near the ventricular surface (data not shown). […] Upon spinning in SpinΩ, organoids developed into multi-layer stratified structures, composed of SOX2+NPCs, TBR2+ intermediate progenitor cells (IPCs), and CTIP2+ neurons (data not shown). With a small volume, it became affordable to supplement media with growth factors at later stages (data not shown).
To generate forebrain-specific organoids, human iPSC colonies were detached 7 days after passage with Collagenase Type IV, washed with fresh stem cell medium and cultured in a 15 ml conical tube. On day 1, detached and washed iPSC colonies were transferred to an Ultra-Low attachment 6-well plate (Corning Costar), containing 3 ml of stem cell medium (without FGF-2), plus 2 μM Dorsomorphine (Sigma) and 2 μM A83-01 (Tocris). On days 5-6, half of the medium was replaced with induction medium consisting of DMEM:F12, 1×N2 Supplement (Invitrogen), 10 μg/ml Heparin (Sigma), 1× Penicillin/Streptomycin, 1× Non-essential Amino Acids, 1× Glutamax, 4 ng/ml WNT-3A (R&D Systems), 1 μM CHIR99021 (Cellagentech), and 1 μM SB-431542 (Cellagentech). On day 7, organoids were embedded in Matrigel (BD Biosciences) and continued to grow in induction medium for 6 more days. On day 14, embedded organoids were mechanically dissociated from Matrigel by pipetting up and down onto the plate with a 5 ml pipette tip. Typically, 10-20 organoids were transferred to each well of a 12-well spinning bioreactor (FIGS. 1-11) containing differentiation medium, consisting of DMEM:F12, 1×N2 and B27 Supplements (Invitrogen), 1× Penicillin/Streptomycin, 1×2-Mercaptoenthanol, 1× Non-essential Amino Acids, 2.5 μg/ml Insulin (Sigma). […]

Take `CC(C)(c1ccc(O)cc1)c1ccc(O)cc1` [BPA, Bisphenol A]: the “density of PH3+ NPCs” value in data set [1] is given as “decreased density”. The “density of EdU+ NPCs” value in data set [1] (then EdU pulse) is “decreased density”. The “relative VZ thickness at day 28” value in data set [2] is “dose-dependent decrease”. Further, the “proliferation rate of neuronal precursor cells in human organoids” value in data set [3] was “dose-dependent effect”.
On to `Cc1c[nH]c(-c2cnc(NCCNc3ccc(C#N)cn3)nc2-c2ccc(Cl)cc2Cl)n1` [CHIR99021], for which the “number of CAS3+ cells at day 14” value in data set [4] is “drastically reduced”.
`NC(=O)c1ccc(-c2nc(-c3ccc4c(c3)OCO4)c(-c3ccccn3)[nH]2)cc1` [SB-431542]: the “number of CAS3+ cells at day 14” value in data set [4] is given as “drastically reduced”.

B1: WNT3A: recombinant WNT3A protein (protein, UniProt P56704 19-352, looked up)
Protein Wnt-3a: SYPIWWSLAVGPQYSSLGSQPILCASIPGLVPKQLRFCRNYVEIMPSVAEGIKIGIQECQHQFRGRRWNCTTVHDSLAIFGPVLDKATRESAFVHAIASAGVAFAVTRSCAEGTAAICGCSSRHQGSPGKGWKWGGCSEDIEFGGMVSREFADARENRPDARSAMNRHNNEAGRQAIASHMHLKCKCHGLSGSCEVKTCWWSQPDFRAIGDFLKDKYDSASEMVVEKHRESRGWVETLRPRYTYFKVPTERDLVYYEASPNFCEPNPETGSFGTRDRTCNVSSHGIDGCDLLCCGRGHNARAERRREKCRCVFHWCCYVSCQECTRVYDVHTCK
For the molecule B1, the “number of CAS3+ cells at day 14” value in data set [4] is recorded as “drastically reduced”. Besides, the “contribution to the reduction of CAS3+ cells” value in data set [4] (within the three-factor treatment, WNT3A and CHIR99021 activate the same downstream pathway) is on record as “minimal”.

The values are drawn from patent US11053468B2, “Multiwell cell culture system having rotating shafts for mixing culture media and method of use thereof” (The Johns Hopkins University, priority 2015, dated 2021).
